The results in this text go back to patent US20060173015A1, “Cyclohexyldiamines as selective alpha 1a/1d adrenoreceptor antagonists for the treatment of benign prostatic hypertrophy and lower urinary tract symptoms” (priority 2004, published 2006).

For assay [1], the target named is T1, α1b-AR (Homo sapiens, UniProt P35368).
T1 sequence (P35368 1-520): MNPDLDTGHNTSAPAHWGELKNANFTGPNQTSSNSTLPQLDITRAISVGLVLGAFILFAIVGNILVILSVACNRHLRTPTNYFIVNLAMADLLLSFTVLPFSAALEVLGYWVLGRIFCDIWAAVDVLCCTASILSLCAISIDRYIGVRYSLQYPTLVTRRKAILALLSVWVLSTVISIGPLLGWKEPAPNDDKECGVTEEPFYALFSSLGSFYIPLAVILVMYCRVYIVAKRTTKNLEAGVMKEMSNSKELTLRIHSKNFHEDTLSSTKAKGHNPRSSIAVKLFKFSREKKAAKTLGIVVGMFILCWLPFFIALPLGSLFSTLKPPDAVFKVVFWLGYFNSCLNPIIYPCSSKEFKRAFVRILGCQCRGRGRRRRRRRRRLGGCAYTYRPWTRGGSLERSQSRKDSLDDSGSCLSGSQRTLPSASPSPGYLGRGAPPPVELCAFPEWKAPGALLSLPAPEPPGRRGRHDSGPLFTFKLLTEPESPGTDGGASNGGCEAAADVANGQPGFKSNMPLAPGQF
Description: α1-Adrenergic receptor radio-ligand (125I-HEAT) binding assay, α1b subtype. As to conditions: Receptor Binding, Ki α1b-AR, COS-7 cell membranes, 125I-HEAT.

Assay [2] deals with T2, α1d-AR (Homo sapiens, UniProt P25100).
T2 construct: expressed in transfected cells; host or cells: COS-7
T2 sequence (P25100 1-572): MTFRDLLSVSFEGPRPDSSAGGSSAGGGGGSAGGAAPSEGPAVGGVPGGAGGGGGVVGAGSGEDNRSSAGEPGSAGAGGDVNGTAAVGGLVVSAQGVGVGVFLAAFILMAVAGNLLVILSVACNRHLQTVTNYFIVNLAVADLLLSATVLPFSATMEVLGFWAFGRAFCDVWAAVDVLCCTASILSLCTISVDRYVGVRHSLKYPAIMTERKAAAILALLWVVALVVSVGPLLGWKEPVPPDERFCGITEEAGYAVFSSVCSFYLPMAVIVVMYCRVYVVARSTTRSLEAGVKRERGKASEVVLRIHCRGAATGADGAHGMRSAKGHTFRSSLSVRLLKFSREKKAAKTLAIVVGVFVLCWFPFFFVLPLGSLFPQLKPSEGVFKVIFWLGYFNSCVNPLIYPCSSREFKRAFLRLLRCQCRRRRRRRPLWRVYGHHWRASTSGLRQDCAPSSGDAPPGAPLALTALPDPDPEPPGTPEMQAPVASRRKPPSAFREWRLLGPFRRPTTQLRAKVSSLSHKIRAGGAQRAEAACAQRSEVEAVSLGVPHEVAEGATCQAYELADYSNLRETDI
Description: α1-Adrenergic receptor radio-ligand (125I-HEAT) binding assay, α1d subtype. As to conditions: COS-7 cell membranes, 125I-HEAT; read-out: Receptor Binding, Ki α1d-AR. The protocol: (§1) α1-Adrenergic Receptor Binding Assay: Preparation of COS Cell Membranes
(§2) Membranes were prepared from COS-7 cells that had been transfected with one of the three α1-AR subtypes by the following method. COS cells from ten 100 mm tissue culture plates were scraped into 5 mL TE (50 mM Tris-HCl, 5 mM EDTA, pH 7.4). The cell suspension was disrupted with a Brinkman Polytron, setting 8, for 10 sec. The disrupted cells were centrifuged at 1000×g for 10 min at 4° C. Supernatants were centrifuged at 34,500×g for 20 min at 4° C. The membrane pellets were suspended in 2 mL TNE (50 mM Tris-HCl, 5 mM EDTA, 150 mM NaCl, pH7.4). An aliquot of the membrane suspension was stored at −70° C. until use. The protein concentration was determined using the BioRad DC protein assay kit following membrane solubilization with Triton X-100.
(§3) Radio-Ligand Binding Assay
Triplicate determinations of radio-ligand binding in the presence of increasing: concentrations of testing compound were made. The reagents were added to 96-well polypropylene plate wells using the Biomek 1000 robot (Beckman Instruments). […] The plate was incubated at rt for 1 hr. The contents of the wells were filtered through a GF/C membrane Unifilter plate (Packard Instruments) using the Packard Filtermate cell harvester. The filter plates were dried in a vacuum oven for 30 min at 40° C. 25 μL Microscint 20 liquid scintillation fluid (Packard Instuments) was added to each well. The radioactive content was analyzed in the TopCount microplate scintillation counter (Packard Instruments).

Assay [3] deals with T3, α1a-AR (Homo sapiens, UniProt P35348).
T3 construct: expressed in transfected cells; host or cells: COS-7
T3 sequence (P35348 1-466): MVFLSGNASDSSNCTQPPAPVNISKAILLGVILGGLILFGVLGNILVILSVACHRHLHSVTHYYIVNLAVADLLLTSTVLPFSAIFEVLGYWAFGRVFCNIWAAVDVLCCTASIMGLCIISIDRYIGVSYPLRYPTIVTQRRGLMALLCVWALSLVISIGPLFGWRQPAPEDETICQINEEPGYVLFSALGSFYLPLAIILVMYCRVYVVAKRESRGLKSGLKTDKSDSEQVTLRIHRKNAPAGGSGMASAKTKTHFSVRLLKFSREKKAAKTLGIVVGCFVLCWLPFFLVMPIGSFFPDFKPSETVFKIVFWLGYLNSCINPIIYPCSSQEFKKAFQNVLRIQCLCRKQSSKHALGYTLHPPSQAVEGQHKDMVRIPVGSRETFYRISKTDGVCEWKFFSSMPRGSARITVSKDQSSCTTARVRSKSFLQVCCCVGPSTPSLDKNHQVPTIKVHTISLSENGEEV
As to the kind of experiment: α1-Adrenergic receptor radio-ligand (125I-HEAT) binding assay, α1a subtype. To be noted: COS-7 cell membranes, 125I-HEAT. The protocol: as §1, §2, §3
Triplicate determinations of radio-ligand binding in the presence of increasing: concentrations of testing compound were made. The reagents were added to 96-well polypropylene plate wells using the Biomek 1000 robot (Beckman Instruments). Each assay well contained 140 μl TNE, 25 μL ^125I-HEAT (specific activity 2200 Ci/mmol, Dupont-NEN, 50 pM final), 10 μL testing compound dissolved in DMSO (1 pM to 10 μM in half-log increments, final), and 25 μL appropriate α1-AR membrane subtype suspension in TNE (0.5 ng/μL for the α1a and α1b subtypes and 13 ng/μL for the α1d subtype). The plate was incubated at rt for 1 hr. The contents of the wells were filtered through a GF/C membrane Unifilter plate (Packard Instruments) using the Packard Filtermate cell harvester. The filter plates were dried in a vacuum oven for 30 min at 40° C. 25 μL Microscint 20 liquid scintillation fluid (Packard Instuments) was added to each well. The radioactive content was analyzed in the TopCount microplate scintillation counter (Packard Instruments).

With `CC(C)Oc1ccccc1N1CCN([C@H]2CC[C@@H](NS(=O)(=O)c3cccc(F)c3)CC2)CC1` [Cpd 22, 3-Fluoro-N-cis-{4-[4-(2-isopropoxy-phenyl)-piperazin-1-yl]-cyclohexyl}-benzenesulfonamide], the Ki in assay [1] is 108 nM; in assay [2], 3.3 nM; in assay [3] it was 3.5 nM.
For `Cc1c(Cl)cccc1S(=O)(=O)N[C@H]1CC[C@H](N2CCN(c3ccccc3OC(C)C)CC2)CC1` [Cpd 39, 3-Chloro-N-trans-{4-[4-(2-isopropoxy-phenyl)-piperazin-1-yl]-cyclohexyl}-2-methyl-benzenesulfonamide], the Ki in assay [1] amounted to 554 nM; in assay [2], 5.4 nM; in assay [3], 1.1 nM.
For `CC(C)Oc1ccccc1N1CCN([C@H]2CC[C@H](NS(=O)(=O)c3cccc(F)c3)CC2)CC1` [Cpd 50, 3-Fluoro-N-trans-{4-[4-(2-isopropoxy-phenyl)-piperazin-1-yl]-cyclohexyl}-benzenesulfonamide], in that order: 545 nM, 24.5 nM and 0.73 nM.
For `CC(C)Oc1ccccc1N1CCN([C@H]2CC[C@H](NS(=O)(=O)c3ccc(OC(F)(F)F)cc3)CC2)CC1` [Cpd 45, N-trans-{4-[4-(2-Isopropoxy-phenyl)-piperazin-1-yl]-cyclohexyl}-4-trifluoromethoxy-benzenesulfonamide], in that order: 1250 nM, 111 nM and 100 nM.
On to `COc1ccc(Cl)cc1S(=O)(=O)N[C@H]1CC[C@@H](N2CCN(c3ccccc3OC(C)C)CC2)CC1` [Cpd 3, 5-Chloro-N-cis-{4-[4-(2-isopropoxy-phenyl)-piperazin-1-yl]-cyclohexyl}-2-methoxy-benzenesulfonamide], for which the Ki was found to be 47.6 nM in assay [1] and 2.5 nM in assay [3].
As to `O=S(=O)(N[C@H]1CC[C@@H](N2CCN(c3ccc(F)cc3OCC(F)(F)F)CC2)CC1)c1cc(Cl)ccc1F` [Cpd 77, 5-Chloro-2-fluoro-N-cis-(4-{4-[4-fluoro-2-(2,2,2-trifluoro-ethoxy)-phenyl]-piperazin-1-yl}-cyclohexyl)-benzenesulfonamide], the figures for the Ki in assay [1], in assay [2] and in assay [3] were 206 nM, 29 nM and 43 nM, respectively.
For `COc1ccc([N+](=O)[O-])cc1S(=O)(=O)N[C@H]1CC[C@H](N2CCN(c3ccccc3OC(C)C)CC2)CC1` [Cpd 47, N-trans-{4-[4-(2-Isopropoxy-phenyl)-piperazin-1-yl]-cyclohexyl}-2-methoxy-5-nitro-benzenesulfonamide], in that order: 173 nM, 22 nM and 1 nM.
For `CC(C)Oc1ccccc1N1CCN([C@H]2CC[C@@H](NS(=O)(=O)c3ccccc3[N+](=O)[O-])CC2)CC1` [Cpd 26], in that order: 201 nM, 2.5 nM and 6.3 nM.
For `CC(C)Oc1ccccc1N1CCN([C@H]2CC[C@H](NS(=O)(=O)c3ccccc3S(C)(=O)=O)CC2)CC1` [Cpd 33, N-trans-{4-[4-(2-Isopropoxy-phenyl)-piperazin-1-yl]-cyclohexyl}-2-methanesulfonyl-benzenesulfonamide], in that order: 118 nM, 2.8 nM and 12.5 nM.
Consider `CC(C)Oc1ccccc1N1CCN([C@H]2CC[C@@H](NS(=O)(=O)c3cccnc3)CC2)CC1` [Cpd 59, Pyridine-3-sulfonic acid N-cis-{4-[4-(2-isopropoxy-phenyl)-piperazin-1-yl]-cyclohexyl}-amide], for which the Ki in assay [1] is 400 nM; in assay [2] it was 46 nM; in assay [3], 5 nM.
For `COc1ccc(Cl)cc1S(=O)(=O)N[C@H]1CC[C@H](N2CCN(c3ccc(F)cc3OCC(F)(F)F)CC2)CC1` [Cpd 81, 5-Chloro-N-trans-(4-{4-[4-fluoro-2-(2,2,2-trifluoro-ethoxy)-phenyl]-piperazin-1-yl}-cyclohexyl)-2-methoxy-benzenesulfonamide], in that order: 90 nM, 51 nM and 34 nM.
In the case of `Cc1c(Cl)cccc1S(=O)(=O)N[C@H]1CC[C@@H](N2CCN(c3ccccc3OC(C)C)CC2)CC1` [Cpd 11, 3-Chloro-N-cis-{4-[4-(2-isopropoxy-phenyl)-piperazin-1-yl]-cyclohexyl}-2-methyl-benzenesulfonamide], the results for the Ki in assay [1], in assay [2] and in assay [3] were 129 nM, 1.1 nM and 18 nM, respectively.
For `CC(C)Oc1cc(F)ccc1N1CCN([C@H]2CC[C@H](NS(=O)(=O)c3cc(Cl)ccc3F)CC2)CC1` [Cpd 79, 5-Chloro-2-fluoro-N-trans-{4-[4-(4-fluoro-2-isopropoxy-phenyl)-piperazin-1-yl]-cyclohexyl}-benzenesulfonamide], in that order: 107 nM, 14 nM and 5.4 nM.
For `CC(C)Oc1ccccc1N1CCN([C@H]2CC[C@@H](NS(=O)(=O)c3ccccc3)CC2)CC1` [Cpd 25], in that order: 111 nM, 5.2 nM and 13.7 nM.
For `CC(C)Oc1ccccc1N1CCN([C@H]2CC[C@@H](NS(=O)(=O)c3ccc(F)c(Cl)c3)CC2)CC1` [Cpd 14, 3-Chloro-4-fluoro-N-cis-{4-[4-(2-isopropoxy-phenyl)-piperazin-1-yl]-cyclohexyl}-benzenesulfonamide], in that order: 246 nM, 4.3 nM and 11.6 nM.
Take `COc1ccc(Cl)cc1S(=O)(=O)N[C@H]1CC[C@H](N2CCN(c3ccccc3OC(C)C)CC2)CC1` [Cpd 31, 5-Chloro-N-trans-{4-[4-(2-isopropoxy-phenyl)-piperazin-1-yl]-cyclohexyl}-2-methoxy-benzenesulfonamide]: the Ki turned out to be 250 nM in assay [1] and 3.8 nM in assay [3].

The Ki is a dissociation constant, usually derived from enzyme kinetics or from competition with a known ligand.
